From patent publication US20100267725A1, “Compounds, Compositions and Methods Comprising 4N-Substituted Triazole Derivatives” (Institute for OneWorld Health, priority 2009, published 2010)

Target: T1, CFTR channel (Homo sapiens, UniProt P13569)
T1 construct: host or cells: Human colonic T84 cells
Assay: T84 assay (FLIPR membrane potential dye, forskolin/IBMX-stimulated CFTR channel activity)
Type: cell-based
Conditions: Human colonic T84 cells; CFTR stimulated with 10 μM forskolin + 100 μM IBMX
Procedure: (§1) For example, Human colonic T84 cells can be acquired from the European Collection of Cell Cultures (ECACC) and grown in standard culture conditions as described by the supplier. On the day before assay 25,000 T84 cells per well are plated into standard black walled, clear bottom 384-well assay plates in standard growth medium consisting of DMEM:F12 with 10% FBS and incubated overnight. On the day of the assay the plates are washed using a standard assay buffer (HBSS with 10 mM Hepes) and incubated for 15 minutes in serum free cell culture medium before the addition of a commercially available membrane potential sensitive fluorescent dye (FLIPR Red membrane potential dye, Molecular Devices Corporation). T84 cells are incubated with the FLIPR Red membrane potential dye for 45 minutes in the presence and absence of test compound before being transferred to a commercially available fluorescence imaging plate reader (FLIPR384, Molecular Devices Corporation). Fluorescence levels are monitored continuously every second for 150 seconds; after an initial 10 second baseline, CFTR channel activity is stimulated through the addition of 10 μM forskolin in the presence of 100 μM of the phosphodiesterase inhibitor iso-butyl-methylxanthine (IBMX). Addition of the forskolin leads to the activation of intracellular adenylyl cylase 1, elevating cAMP levels and results in the phosphorylation and opening of CFTR anion channels. CFTR channel opening causes chloride ion efflux and subsequent depolarization of the cells, which is measured by an increase in fluorescence. CFTR inhibitor compounds prevent cell depolarization and the associated increase in fluorescence.
as §1, with “Human colonic” for “For example, Human colonic”, “T84 cells are acquired from” for “T84 cells can be acquired from”, “(ECACC) and are grown in” for “(ECACC) and grown in”

T1 sequence (P13569 whole entry): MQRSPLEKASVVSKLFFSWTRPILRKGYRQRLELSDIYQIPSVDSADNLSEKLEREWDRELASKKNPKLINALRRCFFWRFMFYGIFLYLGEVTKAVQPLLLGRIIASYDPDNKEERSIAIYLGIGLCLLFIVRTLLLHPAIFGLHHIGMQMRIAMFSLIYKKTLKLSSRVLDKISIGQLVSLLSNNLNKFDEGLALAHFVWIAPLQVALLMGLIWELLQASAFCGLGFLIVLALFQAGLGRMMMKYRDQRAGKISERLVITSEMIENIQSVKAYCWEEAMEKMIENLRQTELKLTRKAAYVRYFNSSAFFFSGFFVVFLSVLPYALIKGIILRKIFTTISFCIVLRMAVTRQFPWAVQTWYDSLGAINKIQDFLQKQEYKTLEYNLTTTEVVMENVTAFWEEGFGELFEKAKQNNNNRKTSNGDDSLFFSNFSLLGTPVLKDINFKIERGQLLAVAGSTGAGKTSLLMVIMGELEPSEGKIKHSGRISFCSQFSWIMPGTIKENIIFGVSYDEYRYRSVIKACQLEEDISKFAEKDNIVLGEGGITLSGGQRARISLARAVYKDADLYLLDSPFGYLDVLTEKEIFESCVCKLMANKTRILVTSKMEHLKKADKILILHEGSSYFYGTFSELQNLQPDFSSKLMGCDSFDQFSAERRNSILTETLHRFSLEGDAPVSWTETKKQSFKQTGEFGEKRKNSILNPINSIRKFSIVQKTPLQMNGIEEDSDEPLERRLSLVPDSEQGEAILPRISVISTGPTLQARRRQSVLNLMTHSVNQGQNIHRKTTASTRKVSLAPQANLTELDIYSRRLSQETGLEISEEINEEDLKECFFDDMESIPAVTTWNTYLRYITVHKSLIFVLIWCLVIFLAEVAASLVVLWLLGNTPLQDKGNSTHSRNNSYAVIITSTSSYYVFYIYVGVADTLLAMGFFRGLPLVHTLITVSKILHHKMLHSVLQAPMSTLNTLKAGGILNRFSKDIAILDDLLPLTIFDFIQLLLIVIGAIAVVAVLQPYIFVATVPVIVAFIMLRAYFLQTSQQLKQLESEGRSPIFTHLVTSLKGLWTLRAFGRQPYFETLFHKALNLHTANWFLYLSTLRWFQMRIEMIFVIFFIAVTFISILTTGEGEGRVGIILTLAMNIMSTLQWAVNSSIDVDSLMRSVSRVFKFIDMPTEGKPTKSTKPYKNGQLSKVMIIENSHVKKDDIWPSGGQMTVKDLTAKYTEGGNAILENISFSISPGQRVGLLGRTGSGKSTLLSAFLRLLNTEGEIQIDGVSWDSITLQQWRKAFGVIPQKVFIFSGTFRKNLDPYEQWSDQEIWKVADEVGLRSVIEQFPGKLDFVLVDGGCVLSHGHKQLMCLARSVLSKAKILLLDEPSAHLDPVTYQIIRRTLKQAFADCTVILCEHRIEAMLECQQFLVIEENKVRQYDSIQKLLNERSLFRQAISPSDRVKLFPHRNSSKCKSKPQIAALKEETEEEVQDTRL

| Structure (SMILES) | IC50 |
| --- | --- |
| CN(C)c1cccc(Cn2c(C(=O)NCc3ccc(Oc4ccccc4)cc3)nnc2-c2cc(Cl)c(O)c(Cl)c2)c1 [Compound 2, 5-(3,5-dichloro-4-hydroxyphenyl)-4-(3-(dimethylamino)benzyl)-N-(4-phenoxybenzyl)-4H-1,2,4-triazole-3-carboxamide] | 6.69 µM |
| O=C(NCc1ccc(Oc2ccccc2)cc1)c1nnc(-c2cc(Cl)c(O)c(Cl)c2)n1Cc1ccc(CN2CCOCC2)cc1 [Compound 6, 5-(3,5-dichloro-4-hydroxyphenyl)-4-(4-(morpholinomethyl)benzyl)-N-(4-phenoxybenzyl)-4H-1,2,4-triazole-3-carboxamide] | 12.8 µM |
| COc1ccc(-n2c(C(=O)NCc3ccc(Oc4ccccc4)cc3)nnc2-c2cc(Cl)c(O)c(Cl)c2)cn1 [Compound 5, 5-(3,5-dichloro-4-hydroxyphenyl)-4-(6-methoxypyridin-3-yl)-N-(4-phenoxybenzyl)-4H-1,2,4-triazole-3-carboxamide] | 7.74 µM |
| O=C(NCc1ccc(Oc2ccccc2)cc1)c1nnc(-c2cc(Cl)c(O)c(Cl)c2)n1Cc1ccccc1 [Compound 1, 4-benzyl-5-(3,5-dichloro-4-hydroxyphenyl)-N-(4-phenoxybenzyl)-4H-1,2,4-triazole-3-carboxamide] | 7.14 µM |
| O=C(NCc1ccc(Oc2ccccc2)cc1)c1nnc(-c2cc(Cl)c(O)c(Cl)c2)n1Cc1cccnc1 [Compound 3, 5-(3,5-Dichloro-4-hydroxyphenyl)-N-(4-phenoxybenzyl)-4-(pyridin-3-ylmethyl)-4H-1,2,4-triazole-3-carboxamide] | 7.18 µM |
| O=C(NCc1ccc(Oc2ccccc2)cc1)c1nnc(-c2cc(Cl)c(O)c(Cl)c2)n1Cc1ccccn1 [Compound 4, 5-(3,5-dichloro-4-hydroxyphenyl)-N-(4-phenoxybenzyl)-4-(pyridin-2-ylmethyl)-4H-1,2,4-triazole-3-carboxamide] | 12.9 µM |
